Results on 28 compounds are retold here after patent US11407748B2, “Substituted pyrido[1,2-a]pyrimidines and pyrazino[1,2-a]pyrimidines for enhancing AMPA receptor function” (Takeda Pharmaceutical Company Limited, priority 2017, dated 2022).

This assay concerns the target T1, hGluR1 flip (Homo sapiens, UniProt P42261).
T1 construct: expressed in transfected cells; host or cells: CHO-K1
The assay can be described thus: AMPA receptor function-enhancing activity using calcium influx as index. Type of assay: cell-based. Conditions: test compound 30 μM with 3 mM glutamic acid; CHO-K1/GluR1 flip/stargazin-expressing cells; 100% = 3 mM glutamic acid + 300 μM cyclothiazide, 0% = 3 mM glutamic acid alone. In short, it runs like this:
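CHO-K1 cells co-expressing human GluR1 flip and stargazin, loaded with Calcium5 dye with 1.25 mM probenecid. Test compound at 30 μM added with 3 mM glutamate; fluorescence followed 3 min. Activity % scaled between glutamate alone (0%) and glutamate plus 300 μM cyclothiazide (100%).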

T1 sequence (P42261 19-906 isoform P42261-2 limits assumed): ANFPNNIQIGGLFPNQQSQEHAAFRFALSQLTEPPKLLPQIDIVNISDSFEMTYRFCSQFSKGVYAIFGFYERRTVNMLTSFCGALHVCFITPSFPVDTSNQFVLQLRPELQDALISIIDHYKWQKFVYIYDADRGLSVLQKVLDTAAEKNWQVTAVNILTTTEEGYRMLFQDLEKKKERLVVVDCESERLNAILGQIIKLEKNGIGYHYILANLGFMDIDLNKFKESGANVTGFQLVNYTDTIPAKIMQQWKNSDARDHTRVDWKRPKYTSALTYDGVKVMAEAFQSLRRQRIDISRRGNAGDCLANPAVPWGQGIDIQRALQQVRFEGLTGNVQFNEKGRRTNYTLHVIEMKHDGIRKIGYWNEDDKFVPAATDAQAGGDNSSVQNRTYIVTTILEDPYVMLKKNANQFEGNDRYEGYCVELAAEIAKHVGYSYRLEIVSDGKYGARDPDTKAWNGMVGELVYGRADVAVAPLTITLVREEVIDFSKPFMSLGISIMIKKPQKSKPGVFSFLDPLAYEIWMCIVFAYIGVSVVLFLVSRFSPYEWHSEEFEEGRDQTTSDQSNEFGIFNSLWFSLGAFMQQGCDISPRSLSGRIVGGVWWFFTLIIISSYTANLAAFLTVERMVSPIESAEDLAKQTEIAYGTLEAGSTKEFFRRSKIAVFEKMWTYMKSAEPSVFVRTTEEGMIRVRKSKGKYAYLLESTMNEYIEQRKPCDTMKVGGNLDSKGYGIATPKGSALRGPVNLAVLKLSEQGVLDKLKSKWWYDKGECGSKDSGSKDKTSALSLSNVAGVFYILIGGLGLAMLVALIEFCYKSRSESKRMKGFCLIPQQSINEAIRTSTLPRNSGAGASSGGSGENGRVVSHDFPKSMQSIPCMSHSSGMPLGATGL
T1 sequence (Q9Y698 whole entry partner): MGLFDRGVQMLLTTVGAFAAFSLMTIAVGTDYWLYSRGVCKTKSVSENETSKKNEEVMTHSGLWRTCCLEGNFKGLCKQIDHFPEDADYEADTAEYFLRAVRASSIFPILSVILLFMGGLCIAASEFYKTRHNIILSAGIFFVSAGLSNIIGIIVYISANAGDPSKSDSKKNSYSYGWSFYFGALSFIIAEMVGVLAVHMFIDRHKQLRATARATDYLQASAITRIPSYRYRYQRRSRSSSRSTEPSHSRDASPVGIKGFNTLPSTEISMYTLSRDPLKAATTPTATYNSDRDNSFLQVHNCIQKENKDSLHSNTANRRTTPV

For the compound `CN(C(=O)c1ccc(-c2cccn3c(=O)c(Br)c(C(F)(F)F)nc23)cc1F)C1CC1` [Example 94, 4-(3-bromo-4-oxo-2-(trifluoromethyl)-4H-pyrido[1,2-a]pyrimidin-9-yl)-N-cyclopropyl-2-fluoro-N-methylbenzamide], the activation at 30 µM amounted to 94.4%.
Still for that read-out and setting: with `CCN(C(=O)c1ccc(-c2cccn3c(=O)c(Br)c(C(F)(F)F)nc23)cc1F)C1CC1` [Example 95, 4-(3-bromo-4-oxo-2 (trifluoromethyl)-4H-pyrido[1,2 a]pyrimidin-9-yl)-N-cyclopropyl-N-ethyl-2-fluorobenzamide] the figure was 83.2%; with `CN(CC1CC1)C(=O)c1ccc(-c2cccn3c(=O)c(Br)c(C(F)(F)F)nc23)cc1F` [Example 96, 4-(3-bromo-4-oxo-2-(trifluoromethyl)-4H-pyrido[1,2-a]pyrimidin-9-yl)-N-(cyclopropylmethyl)-2-fluoro-N-methylbenzamide], 97.2%; with `CN(CCC#N)C(=O)c1ccc(-c2cccn3c(=O)c(Br)c(C(F)(F)F)nc23)cc1` [Example 99, 4-(3-bromo-4-oxo-2-(trifluoromethyl)-4H-pyrido[1,2-a]pyrimidin-9-yl)-N-(2-cyanoethyl)-N-methylbenzamide], 76.9%.
Take `Cc1c(C(F)(F)F)nc2c(-c3ccc(C(=O)N(C)CCC#N)cc3)cccn2c1=O` [Example 100, N-(2-cyanoethyl)-N-methyl-4-(3-methyl-4-oxo-2-(trifluoromethyl)-4H-pyrido[1,2-a]pyrimidin-9-yl)benzamide]: the activation at 30 µM amounted to 89.2%.
For the compound `Cc1c(C(F)(F)F)nc2c(-c3ccc(C(=O)N[C@@H]4CCCOC4)cc3)cccn2c1=O` [Example 102, 4-(3-methyl-4-oxo-2-(trifluoromethyl)-4H-pyrido[1,2-a]pyrimidin-9-yl)-N-((3R)-tetrahydro-2H-pyran-3-yl)benzamide], the activation at 30 µM was determined as 73.8%.
On the same count and under the same terms, in the case of `O=C(c1ccc(-c2cccn3c(=O)c(Br)c(C(F)(F)F)nc23)cc1)N1CCOC(C(F)F)C1` (stereo not shown) [Example 103, 3-bromo-9-(4-((2-(difluoromethyl)morpholin-4-yl)carbonyl)phenyl)-2-(trifluoromethyl)-4H-pyrido[1,2-a]pyrimidin-4-one] it was 88.6%.
For `Cc1c(C(F)(F)F)nc2c(-c3ccc(C(=O)N4CCOC(C(F)F)C4)cc3)cccn2c1=O` (stereo not shown) [Example 106, 9-(4-((2-(difluoromethyl)morpholin-4-yl)carbonyl)phenyl)-3-methyl-2-(trifluoromethyl)-4H-pyrido[1,2-a]pyrimidin-4-one], the “hGluR1 flip/30 μM (%)” value is recorded as 85.9%.
Still for that read-out and setting: with `Cc1c(C(F)(F)F)nc2c(-c3ccc(C(=O)N4CCOC(C(F)F)C4)cc3)cccn2c1=O` (stereo not shown) [Example 107, 9-(4-((2-(difluoromethyl)morpholin-4-yl)carbonyl)phenyl)-3-methyl-2-(trifluoromethyl)-4H-pyrido[1,2-a]pyrimidin-4-one] the figure was 86%.
With `O=C(N[C@H]1CCCOC1)c1ccc(-c2cccn3c(=O)c(Br)c(C(F)(F)F)nc23)cc1F` [Example 110, 4-(3-bromo-4-oxo-2-(trifluoromethyl)-4H-pyrido[1,2-a]pyrimidin-9-yl)-2-fluoro-N-((3S)-tetrahydro-2H-pyran-3-yl)benzamide], the activation at 30 µM turned out to be 86.8%.
The same measure, in the same setting: with `O=C(N[C@@H]1CCCOC1)c1ccc(-c2cccn3c(=O)c(Br)c(C(F)(F)F)nc23)cc1F` [Example 111, 4-(3-bromo-4-oxo-2-(trifluoromethyl)-4H-pyrido[1,2-a]pyrimidin-9-yl)-2-fluoro-N-((3R)-tetrahydro-2H-pyran-3-yl)benzamide] the figure was 91%.
Regarding `O=C(c1ccc(-c2cccn3c(=O)c(Br)c(C(F)(F)F)nc23)cc1)N1CCOC(C(F)F)C1` (stereo not shown) [Example 113, 3-bromo-9-(4-((2-(difluoromethyl)morpholin-4-yl)carbonyl)phenyl)-2-(trifluoromethyl)-4H-pyrido[1,2-a]pyrimidin-4-one], the “hGluR1 flip/30 μM (%)” value is recorded as 78.7%.
For `O=C(c1ccc(-c2cccn3c(=O)c(Br)c(C(F)(F)F)nc23)cc1)N1CCOC(C(F)F)C1` (stereo not shown) [Example 114, 3-bromo-9-(4-((2-(difluoromethyl)morpholin-4-yl)carbonyl)phenyl)-2-(trifluoromethyl)-4H-pyrido[1,2-a]pyrimidin-4-one], the “hGluR1 flip/30 μM (%)” value came to 77.2%.
As for `Cc1c(C(F)(F)F)nc2c(-c3ccc(C(=O)N[C@H]4CCCOC4)c(F)c3)cccn2c1=O` [Example 115, 2-fluoro-4-(3-methyl-4-oxo-2-(trifluoromethyl)-4H-pyrido[1,2-a]pyrimidin-9-yl)-N-((3S)-tetrahydro-2H-pyran-3-yl)benzamide], the activation at 30 µM was 87.9%.
Same read-out and setting: with `CN(CC1(C#N)CC1)C(=O)c1ccc(-c2cccn3c(=O)c(Br)c(C(F)(F)F)nc23)cc1` [Example 118, 4-(3-bromo-4-oxo-2-(trifluoromethyl)-4H-pyrido[1,2-a]pyrimidin-9-yl)-N-((1-cyanocyclopropyl)methyl)-N-methylbenzamide] the figure was 84%; with `O=C(c1ccc(-c2cccn3c(=O)c(Br)c(C(F)(F)F)nc23)cc1)N1CCOCC(F)(F)C1` [Example 119, 3-bromo-9-(4-((6,6-difluoro-1,4-oxazepan-4-yl)carbonyl)phenyl)-2-(trifluoromethyl)-4H-pyrido[1,2-a]pyrimidin-4-one], 71%.
On the same count and under the same terms, in the case of `N#CC1CCN(C(=O)c2ccc(-c3cccn4c(=O)c(Br)c(C(F)(F)F)nc34)cc2)C1` (stereo not shown) [Example 120, 1-(4-(3-bromo-4-oxo-2-(trifluoromethyl)-4H-pyrido[1,2-a]pyrimidin-9-yl)benzoyl)pyrrolidine-3-carbonitrile] it was 71.5%.
On the same count and under the same terms, in the case of `Cc1c(C(F)(F)F)nc2c(-c3ccc(C(=O)N4CCC(C#N)C4)cc3)cccn2c1=O` (stereo not shown) [Example 121, 1-(4-(3-methyl-4-oxo-2-(trifluoromethyl)-4H-pyrido[1,2-a]pyrimidin-9-yl)benzoyl)pyrrolidine-3-carbonitrile] it was 84.4%.
Take `O=C(N[C@H]1CCCOC1)c1ccc(-c2cccn3c(=O)cc(C(F)(F)F)nc23)cc1` [Example 122, 4-(4-oxo-2-(trifluoromethyl)-4H-pyrido[1,2-a]pyrimidin-9-yl)-N-((3S)-tetrahydro-2H-pyran-3-yl)benzamide]: the activation at 30 µM was found to be 71.4%.
Regarding `O=C(NC1CCOCC1)c1ccc(-c2cccn3c(=O)cc(C(F)(F)F)nc23)cc1` [Example 123, 4-(4-oxo-2-(trifluoromethyl)-4H-pyrido[1,2-a]pyrimidin-9-yl)-N-(tetrahydro-2H-pyran-4-yl)benzamide], the activation at 30 µM amounted to 83.2%.
On the same count and under the same terms, in the case of `O=C(NC1CCOCC1)c1ccc(-c2cccn3c(=O)c(Br)c(C(F)(F)F)nc23)cc1F` [Example 124, 4-(3-bromo-4-oxo-2-(trifluoromethyl)-4H-pyrido[1,2-a]pyrimidin-9-yl)-2-fluoro-N-(tetrahydro-2H-pyran-4-yl)benzamide] it was 86.3%.
Still for that read-out and setting: with `Cc1c(C(F)(F)F)nc2c(-c3ccc(C(=O)NC4CCOCC4)cc3)cccn2c1=O` [Example 125, 4-(3-methyl-4-oxo-2-(trifluoromethyl)-4H-pyrido[1,2-a]pyrimidin-9-yl)-N-(tetrahydro-2H-pyran-4-yl)benzamide] the figure was 86.7%.
The same measure, in the same setting: with `O=C(c1ccc(-c2cccn3c(=O)c(Br)c(C(F)(F)F)nc23)cc1)N1CCOC2CC21` (stereo not shown) [Example 127, 3-bromo-9-(4-(2-oxa-5-azabicyclo[4.1.0]hept-5-ylcarbonyl)phenyl)-2-(trifluoromethyl)-4H-pyrido[1,2-a]pyrimidin-4-one] the figure was 74.7%.
In the case of `O=C(c1ccc(-c2cccn3c(=O)c(Br)c(C(F)(F)F)nc23)cc1)N1CCOC2CC21` (stereo not shown) [Example 128, 3-bromo-9-(4-(2-oxa-5 azabicyclo[4.1.0]hept-5-ylcarbonyl)phenyl)-2-(trifluoromethyl)-4H-pyrido[1,2-a]pyrimidin-4-one], the “hGluR1 flip/30 μM (%)” value worked out at 70.9%.
As to `Cc1c(C(F)(F)F)nc2c(-c3ccc(C(=O)N4CC(F)(F)C4)c(F)c3)cccn2c1=O` [Example 129, 9-(4-((3,3-difluoroazetidin-1-yl)carbonyl)-3-fluorophenyl)-3-methyl-2-(trifluoromethyl)-4H-pyrido[1,2-a]pyrimidin-4-one], the activation at 30 µM was determined as 80.4%.
On the same count and under the same terms, with `O=C(c1ccc(-c2cccn3c(=O)c(Br)c(C(F)(F)F)nc23)cc1F)N1CC(F)(F)C1` [Example 130, 3-bromo-9-(4-((3,3-difluoroazetidin-1-yl)carbonyl)-3-fluorophenyl)-2-(trifluoromethyl)-4H-pyrido[1,2-a]pyrimidin-4-one] the figure was 96%.
Same read-out and setting: in the case of `O=C(NC1CCOCC1)c1ccc(-c2cccn3c(=O)c(Cl)c(C(F)(F)F)nc23)cc1` [Example 131, 4-(3-chloro-4-oxo-2-(trifluoromethyl)-4H-pyrido[1,2-a]pyrimidin-9-yl)-N-(tetrahydro-2H-pyran-4-yl)benzamide] it was 110%.
On the same count and under the same terms, in the case of `O=C(N[C@H]1CCCOC1)c1ccc(-c2cccn3c(=O)c(Cl)c(C(F)(F)F)nc23)cc1` [Example 132, 4-(3-chloro-4-oxo-2-(trifluoromethyl)-4H-pyrido[1,2-a]pyrimidin-9-yl)-N-((3S)-tetrahydro-2H-pyran-3-yl)benzamide] it was 106%.
